Columns and labels:
Assay type in all cases: functional; call rule not given here
[1] = target: T1, Peroxisome proliferator-activated receptor alpha (Homo sapiens, UniProt Q07869); experiment: Agonist activity at human PPARalpha assessed as transactivation activity
T1 sequence (Q07869 whole entry): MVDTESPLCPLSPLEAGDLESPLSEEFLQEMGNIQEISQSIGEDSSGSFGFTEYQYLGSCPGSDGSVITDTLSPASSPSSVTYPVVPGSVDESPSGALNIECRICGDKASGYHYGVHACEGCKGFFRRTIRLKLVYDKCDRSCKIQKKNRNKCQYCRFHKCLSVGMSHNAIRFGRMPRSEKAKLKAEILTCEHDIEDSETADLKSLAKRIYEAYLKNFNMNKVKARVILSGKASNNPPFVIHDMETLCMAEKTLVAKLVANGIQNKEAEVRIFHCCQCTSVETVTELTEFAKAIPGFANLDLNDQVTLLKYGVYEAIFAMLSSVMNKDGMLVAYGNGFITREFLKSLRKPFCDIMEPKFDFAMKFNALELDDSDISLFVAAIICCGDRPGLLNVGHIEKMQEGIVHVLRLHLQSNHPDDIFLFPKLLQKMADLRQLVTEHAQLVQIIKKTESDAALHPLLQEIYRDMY

[2] = target: T2, Peroxisome proliferator-activated receptor gamma (Homo sapiens, UniProt P37231); experiment: Agonist activity at N-terminal His-tagged human PPARgamma expressed in Escherichia coli BL21 assessed as transactivation activity
T2 sequence (P37231 whole entry): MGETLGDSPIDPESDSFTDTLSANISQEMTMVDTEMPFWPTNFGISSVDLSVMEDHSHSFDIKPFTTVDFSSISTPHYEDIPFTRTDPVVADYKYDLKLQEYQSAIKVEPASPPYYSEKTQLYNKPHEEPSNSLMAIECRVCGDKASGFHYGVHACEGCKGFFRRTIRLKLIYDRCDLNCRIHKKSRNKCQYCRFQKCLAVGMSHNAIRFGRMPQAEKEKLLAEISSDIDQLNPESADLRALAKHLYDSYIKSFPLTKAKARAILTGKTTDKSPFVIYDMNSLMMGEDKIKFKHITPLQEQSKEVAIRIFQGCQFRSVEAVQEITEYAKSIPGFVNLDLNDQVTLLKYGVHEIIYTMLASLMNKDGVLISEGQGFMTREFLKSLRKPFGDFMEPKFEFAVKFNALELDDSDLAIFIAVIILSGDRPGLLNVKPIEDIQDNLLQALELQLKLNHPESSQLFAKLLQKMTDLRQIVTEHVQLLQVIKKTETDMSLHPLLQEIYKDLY

[3] = target: T3, Peroxisome proliferator-activated receptor delta (Homo sapiens, UniProt Q03181); experiment: Agonist activity at human PPARdelta assessed as transactivation activity
T3 sequence (Q03181 whole entry): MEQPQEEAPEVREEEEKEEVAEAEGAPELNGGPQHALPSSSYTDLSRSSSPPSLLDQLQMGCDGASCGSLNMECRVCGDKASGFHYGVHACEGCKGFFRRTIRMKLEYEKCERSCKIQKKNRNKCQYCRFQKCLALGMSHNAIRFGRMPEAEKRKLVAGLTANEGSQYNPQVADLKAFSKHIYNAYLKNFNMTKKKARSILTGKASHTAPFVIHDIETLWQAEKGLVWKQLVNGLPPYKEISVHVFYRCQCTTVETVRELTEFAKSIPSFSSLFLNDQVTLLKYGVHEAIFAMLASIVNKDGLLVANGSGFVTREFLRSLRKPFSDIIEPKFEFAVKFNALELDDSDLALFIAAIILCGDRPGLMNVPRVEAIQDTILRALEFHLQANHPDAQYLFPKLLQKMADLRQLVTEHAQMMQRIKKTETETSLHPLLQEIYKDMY

EC50 [1]: 12 nM
EC50 [2]: Not Active
EC50 [3]: 43 nM
SMILES: CC[C@@H](Cc1ccc(OC)c(CNC(=O)c2ccc3ccc4cccc5ccc2c3c45)c1)C(=O)O

From ChEMBL document CHEMBL1955804, “Peroxisome proliferator-activated receptors (PPARs) have multiple binding points that accommodate ligands in various conformations: phenylpropanoic acid-type PPAR ligands bind to PPAR in different conformations, depending on the subtype” (J Med Chem, 2012)
